Among the data in PMC8143342, “β-Ionone Attenuates Dexamethasone-Induced Suppression of Collagen and Hyaluronic Acid Synthesis in Human Dermal Fibroblasts” (Biomolecules, 2021) are IC50 values, retold here.

pIC50: −log10 of the molar value.

For this test, the target named is T1, glucocorticoid receptor (GR) (Homo sapiens, UniProt P04150).
T1 construct: gene NR3C1; full-length GR
T1 sequence (P04150 1-777): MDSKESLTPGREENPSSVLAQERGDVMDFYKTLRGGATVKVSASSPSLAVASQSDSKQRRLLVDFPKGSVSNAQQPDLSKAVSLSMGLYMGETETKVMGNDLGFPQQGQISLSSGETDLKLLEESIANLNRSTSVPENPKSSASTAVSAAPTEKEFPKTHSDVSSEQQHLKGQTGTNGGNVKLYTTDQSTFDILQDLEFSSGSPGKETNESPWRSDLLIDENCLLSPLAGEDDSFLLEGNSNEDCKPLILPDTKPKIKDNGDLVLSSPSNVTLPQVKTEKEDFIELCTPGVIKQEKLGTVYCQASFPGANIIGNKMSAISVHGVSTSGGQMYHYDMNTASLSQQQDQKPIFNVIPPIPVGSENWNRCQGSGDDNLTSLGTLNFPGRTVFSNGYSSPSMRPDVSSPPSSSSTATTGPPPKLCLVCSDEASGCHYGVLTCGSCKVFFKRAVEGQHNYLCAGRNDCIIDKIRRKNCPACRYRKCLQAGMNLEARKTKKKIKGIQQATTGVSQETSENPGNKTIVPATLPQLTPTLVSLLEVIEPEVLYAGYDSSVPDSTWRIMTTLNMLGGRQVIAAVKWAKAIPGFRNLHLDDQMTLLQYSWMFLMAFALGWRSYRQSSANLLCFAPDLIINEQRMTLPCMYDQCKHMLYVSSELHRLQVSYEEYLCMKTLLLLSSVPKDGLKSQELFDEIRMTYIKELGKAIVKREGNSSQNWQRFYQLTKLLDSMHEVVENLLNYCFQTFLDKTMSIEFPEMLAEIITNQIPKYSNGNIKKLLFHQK
The test can be described thus: fluorescence polarization competition with fluorescent glucocorticoid ligand (PolarScreen GR Competitor Assay), purified GR. Type of test: binding. (In fluorescence polarisation assays a small probe gives low polarisation when free and higher when bound to something large.)

What is called pIC50 is the IC50 on a negative log10 scale, so that one unit is a factor of ten. A low value points to a high IC50. For `CC(=O)/C=C/C1=C(C)CCCC1(C)C` [β-ionone], the pIC50 is 4.18.
